Melting point data for 22 compounds are collected here from US20040116330A1, “Preventive/therapeutic method for cancer” (priority 2001, published 2004).

Take `FC(F)(F)c1ccc(/C=C/c2nc(COc3ccc(CCCn4ccnn4)cc3)co2)cc1` [Compound B5, 1-(3-{4-[(2-((E)-2-[4-(trifluoromethyl)phenyl]ethenyl)-1,3-oxazol-4-yl)methoxy]phenyl)propyl)-1H-1,2,3-triazole]: the melting point fell in the range of 157 to 158 °C.

`Fc1ccc(/C=C/c2nc(COc3cccc(CCCn4ccnn4)c3)co2)c(F)c1` [Compound B8, 1-{3-[3-({2-[(E)-2-(2,4-difluorophenyl)ethenyl]-1,3-oxazol-4-yl}methoxy)phenyl]propyl}-1H-1,2,3-triazole] came in with a melting point of 89 to 90 °C.

`Fc1ccc(/C=C/c2nc(COc3ccc(CCCCn4ccnn4)cc3)co2)c(F)c1` [Compound B7, 1-{4-[4-({2-[(E)-2-(2,4-difluorophenyl)ethenyl]-1,3-oxazol-4-yl}methoxy)phenyl]butyl}-1H-1,2,3-triazole]: the melting point was in the range of 115 to 117 °C.

The compound `Fc1ccc(/C=C/c2nc(COc3cccc(CCCn4ccnn4)c3)co2)cc1` [Compound B3, 1-{3-[3-({2-[(E)-2-(4-fluorophenyl)ethenyl]-1,3-oxazol-4-yl}methoxy)phenyl]propyl}-1H-1,2,3-triazole] had a melting point of 105 to 106 °C.

The compound `CCc1ccc(/C=C/c2nc(COc3ccc(CCCCn4ccnc4CCO)cc3)co2)cc1` [Compound B13, 2-[1-[4-[4-[[2-[(E)-2-(4-ethylphenyl)ethenyl]-1,3-oxazol-4-yl]methoxy]phenyl]butyl]-1H-imidazol-2-yl]-1-ethanol] registered a melting point of 94 to 95 °C.

`Cc1ccccc1/C=C/c1nc(COc2ccc(CCCCn3ccnc3CCO)cc2)co1` [Compound B12, 2-[1-[4-[4-[[2-[(E)-2-(2-methylphenyl)ethenyl]-1,3-oxazol-4-yl]methoxy]phenyl]butyl]-1H-imidazol-2-yl]-1-ethanol] registered a melting point of 91 to 93 °C.

In turn, `Fc1ccc(/C=C/c2nc(COc3ccc(CCCCn4ccnn4)cc3)co2)cc1` [Compound B2, 1-{4-[4-({2-[(E)-2-(4-fluorophenyl)ethenyl]-1,3-oxazol-4-yl}methoxy)phenyl]butyl}-1H-1,2,3-triazole] came in with a melting point of 124 to 125 °C.

With `Cc1ccc(/C=C/c2nc(COc3ccc(CCCCn4ccnc4CCO)cc3)co2)cc1` [Compound B10, 2-[1-[4-[4-[[2-[(E)-2-(4-methylphenyl)ethenyl]-1,3-oxazol-4-yl]methoxy]phenyl]butyl]-1H-imidazol-2-yl]-1-ethanol], the melting point lay in the range of 108 to 109 °C.

The compound `OCCc1nccn1CCCCc1ccc(OCc2coc(/C=C/c3ccc(F)cc3)n2)cc1` [Compound B14, 2-(1-{4-[4-({2-[(E)-2-(4-fluorophenyl)ethenyl]-1,3-oxazol-4-yl}methoxy)phenyl]butyl)-1H-imidazol-2-yl)-1-ethanol] registered a melting point of 130 to 132 °C.

Consider `Cc1cccc(/C=C/c2nc(COc3ccc(CCCCn4ccnc4CC(O)CO)cc3)co2)c1` (stereo not shown) [Compound B22, 3-(1-{4-[4-({2-[(E)-2-(3-methylphenyl)ethenyl]-1,3-oxazol-4-yl}methoxy)phenyl]butyl}-1H-imidazol-2-yl)-1,2-propanediol], for which the melting point lay within 102 to 104 °C.

In the case of `OCCc1nccn1CCCCc1ccc(OCc2coc(/C=C/c3ccc(F)cc3F)n2)cc1` [Compound B19, 2-[1-[4-[4-[[2-[(E)-2-(2,4-difluorophenyl)ethenyl]-1,3-oxazol-4-yl]methoxy]phenyl]butyl]-1H-imidazol-2-yl]-1-ethanol], the melting point fell in the range of 93 to 95 °C.

In turn, `OCC(O)Cc1nccn1CCCCc1ccc(OCc2coc(/C=C/c3ccc(C(F)(F)F)cc3)n2)cc1` (stereo not shown) [Compound B24, 3-[1-(4-(4-[(2-{(E)-2-[4-(trifluoromethyl)phenyl]ethenyl)-1,3-oxazol-4-yl)methoxy]phenyl}butyl)-1H-imidazol-2-yl]-1,2-propanediol] returned a melting point of 142 to 143 °C.

`OCC(O)Cc1nccn1CCCCc1ccc(OCc2coc(/C=C/c3c(F)cccc3F)n2)cc1` (stereo not shown) [Compound B28, 3-[1-[4-[4-[[2-[(E)-2-(2,6-difluorophenyl)ethenyl]-1,3-oxazol-4-yl]methoxy]phenyl]butyl]-1H-imidazol-2-yl]-1,2-propanediol] returned a melting point of 123 to 125 °C.

`OCCc1nccn1CCCCc1ccc(OCc2coc(/C=C/c3ccc(Cl)cc3)n2)cc1` [Compound B15, 2-[1-[4-[4-[[2-[(E)-2-(4-chlorophenyl)ethenyl]-1,3-oxazol-4-yl]methoxy]phenyl]butyl]-1H-imidazol-2-yl]-1-ethanol] came in with a melting point of 127 to 128 °C.

Compound `OCC(O)Cc1nccn1CCCCc1ccc(OCc2coc(/C=C/c3ccc(F)cc3F)n2)cc1` (stereo not shown) [Compound B26, 3-(1-{4-[4-({2-[(E)-2-(2,4-difluorophenyl)ethenyl]-1,3-oxazol-4-yl)methoxy)phenyl]butyl}-1H-imidazol-2-yl)-1,2-propanediol] gave a melting point of 126 to 128 °C.

As for `OCC(O)Cc1nccn1CCCc1cccc(OCc2coc(/C=C/c3ccc(F)cc3F)n2)c1` (stereo not shown) [Compound B27, 3-(1-{3-[3-({2-[(E)-2-(2,4-difluorophenyl)ethenyl]-1,3-oxazol-4-yl}methoxy)phenyl]propyl}-1H-imidazol-2-yl)-1,2-propanediol], the melting point lay in the range of 92 to 94 °C.

In turn, `OCC(O)Cc1nccn1CCCc1cccc(OCc2coc(/C=C/c3ccc(C(F)(F)F)cc3)n2)c1` (stereo not shown) [Compound B25, 3-[1-(3-{3-[(2-{(E)-2-[4-(trifluoromethyl)phenyl]ethenyl}-1,3-oxazol-4-yl)methoxy]phenyl]propyl)-1H-imidazol-2-yl]-1,2-propanediol] came in with a melting point of 102 to 104 °C.

The compound `OCCc1nccn1CCCc1ccc(OCc2coc(/C=C/c3ccc(F)cc3F)n2)cc1` [Compound B20, 2-[1-[3-[4-[[2-[(E)-2-(2,4-difluorophenyl)ethenyl]-1,3-oxazol-4-yl]methoxy]phenyl]propyl]-1H-imidazol-2-yl]-1-ethanol] showed a melting point of 94 to 96 °C.

For the compound `OCCc1nccn1CCCCc1ccc(OCc2coc(/C=C/c3ccc(Br)cc3)n2)cc1` [Compound B16, 2-[1-[4-[4-[[2-[(E)-2-(4-bromophenyl)ethenyl]-1,3-oxazol-4-yl]methoxy]phenyl]butyl]-1H-imidazol-2-yl]-1-ethanol], the melting point was 149 to 150 °C.

Compound `Cc1cccc(/C=C/c2nc(COc3ccc(CCCCn4ccnc4CCO)cc3)co2)c1` [Compound B11, 2-[1-[4-[4-[[2-[(E)-2-(3-methylphenyl)ethenyl]-1,3-oxazol-4-yl]methoxy]phenyl]butyl]-1H-imidazol-2-yl]-1-ethanol] registered a melting point of 109 to 111 °C.

`OCC(O)Cc1nccn1CCCCc1ccc(OCc2coc(/C=C/c3ccc(F)cc3)n2)cc1` (stereo not shown) [Compound B23, 3-(1-{4-[4-({2-[(E)-2-(4-fluorophenyl)ethenyl]-1,3-oxazol-4-yl}methoxy)phenyl]butyl}-1H-imidazol-2-yl)-1,2-propanediol] showed a melting point of 114 to 116 °C.

`FC(F)(F)c1ccc(/C=C/c2nc(COc3cccc(CCCn4ccnn4)c3)co2)cc1` [Compound B6, 1-(3-{3-[(2-((E)-2-[4-(trifluoromethyl)phenyl]ethenyl}-1,3-oxazol-4-yl)methoxy]phenyl}propyl)-1H-1,2,3-triazole] registered a melting point of 115 to 116 °C.

By melting point is commonly meant the temperature of the solid-liquid transition.
